Measurements: patent US20250304567A1, “PYRROLIDIONE DERIVATIVES AS INHIBITORS OF NF KAPPA B INDUCING KINASE” (priority 2022, published 2025)
Like-named read-outs stand apart in the source and are kept apart here.

Experiments:
[1] = target: Recombinant Human NF-kappaB-Inducing Kinase (NIK/MAP3K14) (Homo sapiens, UniProt Q99558); assay: Inhibition of auto-phosphorylation of recombinant human NIK/MAP3K14 activity (AlphaScreen); format: biochemical; settings: 5 μM ATP, 1 nM NIK, average if tested more than once
Procedure, shortened: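 AlphaScreen detection of phospho-Ser176/180 after 1 nM GST-NIK auto-phosphorylates for 2 h at 25 °C with 5 μM ATP (50 mM Tris pH 7.5, 0.7% DMSO). IC50s come from sigmoidal curves of % inhibition against log dose, using enzyme-free, ATP-free low controls and full-activity high controls.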

[2] = system: p-IKKa levels in L363 (NIK translocated multiple myeloma) cells; assay: Effect of compounds on p-IKKa levels in L363 (NIK translocated multiple myeloma) cells (AlphaLISA SureFire Ultra p-IKKa Ser176/180); format: cell-based, human; settings: average if tested more than once, read-out: Assay 2 IC50
Procedure, shortened: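 Phospho-IKKa (Ser176/180) in lysates quantified by AlphaLISA after 6 h compound exposure, 11-point threefold dilutions, 0.3% DMSO. L363 cells were pre-stimulated overnight and assayed with 250 ng/ml BAFF and 10 μM MG132; % inhibition fitted sigmoidally for IC50, duplicate curves.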

[3] = Homo sapiens, L-363, p-IKKa levels in L363 cells

Sequence of Recombinant Human NF-kappaB-Inducing Kinase (NIK/MAP3K14) (Q99558 whole entry): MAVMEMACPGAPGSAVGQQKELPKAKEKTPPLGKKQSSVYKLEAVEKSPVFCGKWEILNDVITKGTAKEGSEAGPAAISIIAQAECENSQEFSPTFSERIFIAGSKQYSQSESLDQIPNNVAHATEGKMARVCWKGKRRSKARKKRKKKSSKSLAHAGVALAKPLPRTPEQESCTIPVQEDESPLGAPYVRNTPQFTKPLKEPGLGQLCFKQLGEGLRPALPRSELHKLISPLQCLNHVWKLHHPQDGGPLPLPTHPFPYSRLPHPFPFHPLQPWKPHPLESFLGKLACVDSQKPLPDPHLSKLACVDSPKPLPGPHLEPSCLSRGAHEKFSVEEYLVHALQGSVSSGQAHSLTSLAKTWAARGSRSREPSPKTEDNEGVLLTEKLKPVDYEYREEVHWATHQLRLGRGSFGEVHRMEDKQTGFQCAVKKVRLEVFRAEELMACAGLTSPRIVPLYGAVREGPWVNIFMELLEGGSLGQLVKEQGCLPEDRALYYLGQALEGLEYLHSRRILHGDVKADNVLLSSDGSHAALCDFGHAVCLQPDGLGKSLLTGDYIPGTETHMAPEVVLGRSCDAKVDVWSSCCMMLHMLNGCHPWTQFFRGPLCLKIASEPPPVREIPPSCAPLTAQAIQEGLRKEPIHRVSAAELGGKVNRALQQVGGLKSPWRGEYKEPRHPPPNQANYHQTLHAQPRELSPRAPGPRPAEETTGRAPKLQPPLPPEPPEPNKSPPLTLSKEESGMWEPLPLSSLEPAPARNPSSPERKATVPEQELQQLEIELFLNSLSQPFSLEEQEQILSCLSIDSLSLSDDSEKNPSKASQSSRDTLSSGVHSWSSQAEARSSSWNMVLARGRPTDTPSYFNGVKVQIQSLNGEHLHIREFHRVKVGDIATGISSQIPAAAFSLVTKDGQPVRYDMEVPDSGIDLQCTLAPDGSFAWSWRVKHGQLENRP

Structure (SMILES) | IC50 [1] [nM] | IC50 [2, 3] [nM] | IC50 ([2]; p-IKKa levels in L363 cells) [nM]
CN1CC[C@@](O)(c2cncc(-c3ccn(-c4ccnc(Nc5cn(CC(F)F)nc5OC5CC5)n4)n3)c2)C1=O (single isomer, unassigned) [Example 145, (R)-3-(5-(1-(2-((3-cyclopropoxy-1-(2,2-difluoroethyl)-1H-pyrazol-4-yl)amino)pyrimidin-4-yl)-1H-pyrazol-3-yl)pyridin-3-yl)-3-hydroxy-1-methylpyrrolidin-2-one or (S)-3-(5-(1-(2-((3-cyclopropoxy-1-(2,2-difluoroethyl)-1H-pyrazol-4-yl)amino)pyrimidin-4-yl)-1H-pyrazol-3-yl)pyridin-3-yl)-3-hydroxy-1-methylpyrrolidin-2-one] | < 100 | < 100 | 
CN1CC[C@@](O)(c2cccc(-c3nc(-c4ccnc(NCc5cnn(C)c5)n4)cs3)c2)C1=O [Example 183] | < 100 | > 501 | 
CN1CC[C@@](O)(c2cccc(-c3nc(-c4ccnc(Nc5cccc(OC(F)F)n5)n4)cs3)c2)C1=O [Example 168, (R)-3-(3-(4-(2-((6-(Difluoromethoxy)pyridin-2-yl)amino)pyrimidin-4-yl)thiazol-2-yl)phenyl)-3-hydroxy-1-methylpyrrolidin-2-one] | < 100 | > 501 | 
CC(Nc1nccc(-c2nc(-c3cccc(C4(O)CCN(C)C4=O)c3)cs2)n1)c1ccn(C)n1 (single isomer, unassigned) [Example 50] | 100 to 500 |  | > 501
CCOc1cn(C)nc1Nc1nccc(-c2csc(-c3cccc([C@]4(O)CCN(C)C4=O)c3)n2)n1 [Example 78, (R)-3-(3-(4-(2-((4-ethoxy-1-methyl-1H-pyrazol-3-yl)amino)pyrimidin-4-yl)thiazol-2-yl)phenyl)-3-hydroxy-1-methylpyrrolidin-2-one] | < 100 | < 100 | 
CN1CC[C@@](O)(c2cccc(-c3nc(-c4ccnc(Nc5cn(C6CCC6)cn5)n4)cs3)c2)C1=O [Example 124, (R)-3-(3-(4-(2-((1-cyclobutyl-1H-imidazol-4-yl)amino)pyrimidin-4-yl)thiazol-2-yl)phenyl)-3-hydroxy-1-methylpyrrolidin-2-one] | < 100 | > 501 | 
CN1CC[C@@](O)(c2cccc(-c3nc(-c4ccnc(N[C@@H]5CCC[C@H]5O)n4)cs3)c2)C1=O [Example 216] | 100 to 500 | > 501 | 
CN1CC[C@@](O)(c2cccc(-c3nc(-c4ccnc(NCCc5cn(C)cn5)n4)cs3)c2)C1=O [Example 211] | > 501 | > 501 | 
CN1CC[C@@](O)(c2cccc(-c3nc(-c4ccnc(Nc5cn(C)nc5OCC(F)(F)F)n4)cs3)c2)C1=O [Example 98, (R)-3-hydroxy-1-methyl-3-(3-(4-(2-((1-methyl-3-(2,2,2-trifluoroethoxy)-1H-pyrazol-4-yl)amino)pyrimidin-4-yl)thiazol-2-yl)phenyl)pyrrolidin-2-one] | < 100 | < 100 | 
CN1CC[C@@](O)(c2cccc(-c3nc(-c4ccnc(NC5CCN(S(C)(=O)=O)CC5)n4)cs3)c2)C1=O [Example 47, (R)-3-Hydroxy-1-methyl-3-(3-(4-(2-((1-(methylsulfonyl)piperidin-4-yl)amino)pyrimidin-4-yl)thiazol-2-yl)phenyl)pyrrolidin-2-one] | < 100 | > 501 | 
CN1CC[C@@](O)(c2cccc(-c3nc(-c4ccnc(Nc5cccc(C(F)(F)F)n5)n4)cs3)c2)C1=O [Example 169, (R)-3-Hydroxy-1-methyl-3-(3-(4-(2-((6-(trifluoromethyl)pyridin-2-yl)amino)pyrimidin-4-yl)thiazol-2-yl)phenyl)pyrrolidin-2-one] | < 100 | > 501 | 
CN1CC[C@@](O)(c2cccc(-c3nc(-c4ccnc(Nc5ccn(C(F)(F)F)n5)n4)cs3)c2)C1=O [Example 257, (R)-3-Hydroxy-1-methyl-3-(3-(4-(2-((1-(trifluoromethyl)-1H-pyrazol-3-yl)amino)pyrimidin-4-yl)thiazol-2-yl)phenyl)pyrrolidin-2-one] | < 100 | > 501 | 
CN1CC[C@@](O)(c2cccc(-c3nc(-c4ccnc(Nc5cnn(C(F)F)c5)n4)cs3)c2)C1=O [Example 271, (R)-3-(3-(4-(2-((1-(Difluoromethyl)-1H-pyrazol-4-yl)amino)pyrimidin-4-yl)thiazol-2-yl)phenyl)-3-hydroxy-1-methylpyrrolidin-2-one] | < 100 | 100 to 500 | 
CC(Nc1nccc(-c2csc(-c3cccc([C@]4(O)CCN(C)C4=O)c3)n2)n1)c1ncco1 (some centres unmarked) [Example 199] | < 100 | > 501 | 
CN1CC[C@@](O)(c2cccc(-c3nc(-c4ccnc(Nc5cccnc5C(F)(F)F)n4)cs3)c2)C1=O [Example 166, (R)-3-Hydroxy-1-methyl-3-(3-(4-(2-((2-(trifluoromethyl)pyridin-3-yl)amino)pyrimidin-4-yl)thiazol-2-yl)phenyl)pyrrolidin-2-one] | < 100 | > 501 | 
CN1CC[C@@](O)(c2cccc(-c3nc(-c4ccnc(NCCCS(C)(=O)=O)n4)cs3)c2)C1=O [Example 232] | 100 to 500 | > 501 | 
CN1CC[C@@](O)(c2cccc(-c3csc(-c4ccnc(Nc5cnn(CC(F)F)c5)n4)n3)c2)C1=O [Example 80, (R)-3-(3-(2-(2-((1-(2,2-difluoroethyl)-1H-pyrazol-4-yl)amino)pyrimidin-4-yl)thiazol-4-yl)phenyl)-3-hydroxy-1-methylpyrrolidin-2-one] | < 100 | < 100 | 
CN1CC[C@@](O)(c2cccc(-c3nc(-c4nc(Nc5ccn(C)n5)ncc4F)cs3)c2)C1=O [Example 52, (R)-3-(3-(4-(5-Fluoro-2-((1-methyl-1H-pyrazol-3-yl)amino)pyrimidin-4-yl)thiazol-2-yl)phenyl)-3-hydroxy-1-methylpyrrolidin-2-one] | 100 to 500 | > 501 | 
Cc1ncc(C#N)cc1Nc1nccc(-c2csc(-c3cccc([C@]4(O)CCN(C)C4=O)c3)n2)n1 [Example 8, (R)-5-((4-(2-(3-(3-Hydroxy-1-methyl-2-oxopyrrolidin-3-yl)phenyl)thiazol-4-yl)pyrimidin-2-yl)amino)-6-methylnicotinonitrile] | < 100 | 100 to 500 | 
CN1CC[C@@](O)(c2cccc(-c3nc(-c4ccnc(Nc5cn(C)nn5)n4)cs3)c2)C1=O [Example 283, (R)-3-hydroxy-1-methyl-3-(3-(4-(2-((1-methyl-1H-1,2,3-triazol-4-yl)amino)pyrimidin-4-yl)thiazol-2-yl)phenyl)pyrrolidin-2-one] | < 100 | 100 to 500 | 
Cc1cc(Nc2nccc(-c3csc(-c4cccc([C@]5(O)CCN(C)C5=O)c4)n3)n2)nn1C [Example 49, (R)-3-(3-(4-(2-((1,5-Dimethyl-1H-pyrazol-3-yl)amino)pyrimidin-4-yl)thiazol-2-yl)phenyl)-3-hydroxy-1-methylpyrrolidin-2-one] | < 100 | 100 to 500 | 
CN1CCC(O)(c2ccc(F)c(-c3csc(-c4ccnc(Nc5ccn(C)n5)n4)n3)c2)C1=O (single isomer, unassigned) [Example 29, 3-(4-fluoro-3-(2-(2-((1-methyl-1H-pyrazol-3-yl)amino)pyrimidin-4-yl)thiazol-4-yl)phenyl)-3-hydroxy-1-methylpyrrolidin-2-one] | 100 to 500 |  | > 501
